From patent US8633183B2 (priority 2010, dated 2014) come the findings set out here.

The IC50 is the concentration that gives 50% inhibition.

The target of the assay is PI3Kalpha (Homo sapiens (Human), UniProt P42336). The following applies: read-out: IC50 PI3K.
Sequence of PI3Kalpha (P42336 whole entry, looked up): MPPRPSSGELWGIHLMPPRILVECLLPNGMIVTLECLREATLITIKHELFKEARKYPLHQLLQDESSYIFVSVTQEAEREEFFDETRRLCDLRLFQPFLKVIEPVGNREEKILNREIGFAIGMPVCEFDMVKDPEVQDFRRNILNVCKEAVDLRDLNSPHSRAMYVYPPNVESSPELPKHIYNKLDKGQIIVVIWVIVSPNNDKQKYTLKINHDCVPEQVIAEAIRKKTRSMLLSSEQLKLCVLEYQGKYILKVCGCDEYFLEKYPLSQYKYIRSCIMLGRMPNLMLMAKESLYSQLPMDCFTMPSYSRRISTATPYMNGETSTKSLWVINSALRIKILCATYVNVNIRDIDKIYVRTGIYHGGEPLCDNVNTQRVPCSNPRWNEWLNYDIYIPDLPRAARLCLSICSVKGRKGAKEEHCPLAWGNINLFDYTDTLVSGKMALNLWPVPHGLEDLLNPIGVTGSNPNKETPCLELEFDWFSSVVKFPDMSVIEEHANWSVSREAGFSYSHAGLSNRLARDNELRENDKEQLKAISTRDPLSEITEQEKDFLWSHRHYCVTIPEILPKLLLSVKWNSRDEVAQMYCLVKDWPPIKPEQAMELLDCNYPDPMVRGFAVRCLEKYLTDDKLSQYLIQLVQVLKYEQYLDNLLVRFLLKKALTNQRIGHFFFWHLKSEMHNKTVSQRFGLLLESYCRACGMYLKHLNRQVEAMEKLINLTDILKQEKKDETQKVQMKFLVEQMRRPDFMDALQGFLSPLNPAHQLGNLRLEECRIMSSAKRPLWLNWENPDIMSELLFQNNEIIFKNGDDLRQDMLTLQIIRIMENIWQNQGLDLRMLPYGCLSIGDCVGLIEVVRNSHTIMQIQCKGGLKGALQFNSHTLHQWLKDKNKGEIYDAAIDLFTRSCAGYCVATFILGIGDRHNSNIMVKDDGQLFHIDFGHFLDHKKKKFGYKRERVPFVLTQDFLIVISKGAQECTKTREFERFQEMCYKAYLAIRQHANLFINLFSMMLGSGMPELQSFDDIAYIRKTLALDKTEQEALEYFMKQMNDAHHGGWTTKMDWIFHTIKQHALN
Description: Plot the concentration of each compound versus the emission ratio. […] Determination of IC50 values can be obtained by curve fitting (sigmoidal dose response, variable slope) using Prism software from GraphPad).
Method Type: Filter-Binding-Assay
Compounds are serially diluted in assay buffer+6% DMSO and 10 μl of each dilution is added per well of a 96-well plate (compounds are tested in duplicates) and mixed with 30 μl of the lipid vesicles containing PDGFR-Peptide (0.5 μM final) and PI3K alpha (25 ng/well final). The mixture is then incubated for 20 minutes at room temperature. Subsequently, 20 μl of assay buffer containing 3 μM cold ATP and 0.5 μCi/20 μl 33P-ATP are added. The plates are then incubated at room temperature for 120 minutes (shaking with 300 rpm). The reaction mix is transferred onto filter plates using “filtermate harvester” from Packard: filter plates are rinsed with PBS, then the reaction mix is filtered onto the filter plate, washed 5 times with PBS and are allowed to dry for 30-60 minutes at 50° C.
As positive control serve wells containing vehicle controls (1% DMSO in assay buffer), showing non-inhibited kinase activity (high values). Wells containing assay buffer instead of enzyme can serve as control for background activity (low values).
Calculate IC50 values using the Smiley program (based on GrapPad Prism)
`CCc1ncnc(-c2ccc(C(=O)N3CCN(C)CC3)c(F)c2)c1C#Cc1ccc(N)nc1C` [Example D-21]: the IC50 is 270 nM.
The result for `Cc1ccc(-c2ncnc(C)c2C#Cc2ccc(N)nc2)cn1` [Example C-24] reads 59 nM; that for `CCc1ncnc(-c2ccc(OC)nc2)c1C#Cc1ccc(N)nc1` [Example C-30], 40 nM.
Consider `CCCCN1CCN(C(=O)c2ccc(-c3ncnc(CC)c3C#Cc3ccc(N)nc3)cc2C)CC1` [Example E-86], for which the IC50 was determined as 147 nM.
On to `CCOC(=O)N1CCN(C(=O)c2ccc(-c3ncnc(CC)c3C#Cc3ccc(N)nc3)cc2F)CC1` [Example D-116], for which the IC50 was determined as 129 nM.
The result for `CCc1ncnc(-c2ccc(C(=O)N3CCN(Cc4ccccc4)CC3)c(F)c2)c1C#Cc1ccc(N)nc1C` [Example D-24] reads 1020 nM.
The result for `CCc1ncnc(-c2cc(Cl)c(C(=O)N3CCN(CC(F)F)CC3)c(Cl)c2)c1C#Cc1ccc(N)nc1` [Example E-202] reads 85.8 nM; that for `CCc1ncnc(-c2ccc(C(=O)N3CCN(C)C(C)C3)c(F)c2)c1C#Cc1ccc(N)nc1` [Example D-128], 157 nM.
The result for `CCc1ncnc(-c2ccc(C(=O)NCC3(C)COC3)c(Cl)c2)c1C#Cc1ccc(N)nc1` [Example E-41] reads 66 nM; that for `CCc1ncnc(-c2ccc(C(=O)N3CCC(CCO)CC3)c(F)c2)c1C#Cc1ccc(N)nc1` [Example D-104], 125 nM.
`CCc1ncnc(-c2ccnc(C)c2)c1C#Cc1ccc(N)nc1` [Example C-27]: the IC50 was 57 nM.
The result for `CCc1ncnc(-c2ccc(C(=O)N3CCOC4(CCN(C(=O)OC(C)(C)C)CC4)C3)c(F)c2)c1C#Cc1ccc(N)nc1` [Example E-325] reads 1180 nM; that for `CCc1ncnc(-c2ccc(C(=O)N(C)C3CCS(=O)(=O)C3)c(F)c2)c1C#Cc1ccc(N)nc1` [Example D-216], 59 nM; that for `CCc1ncnc(-c2ccc(C(=O)N3CCC(O)CC3)c(F)c2)c1C#Cc1ccc(N)nc1` [Example D-71], 85 nM.
Consider `CCc1ncnc(-c2ccc(C(=O)N3CCN(CC4CCCCC4)CC3)c(F)c2)c1C#Cc1ccc(N)nc1` [Example D-94], for which the IC50 stood at 1820 nM.
In the case of `CCc1ncnc(-c2ccc(C(=O)NC3CCS(=O)(=O)C3)c(F)c2)c1C#Cc1ccc(N)nc1` [Example D-212], the IC50 is 79 nM.
The result for `CCc1ncnc(-c2ccc(C(=O)N3CCN(C4COC4)CC3)c(F)c2)c1C#Cc1ccc(N)nc1` [Example E-271] reads 113 nM; that for `CCc1ncnc(-c2ccc(C(=O)N3CCN(C)C(C)(C)C3)c(F)c2)c1C#Cc1ccc(N)nc1` [Example D-127], 344 nM.
The result for `CCc1ncnc(-c2ccc(C(=O)NCC3(C)COC3)c(C)c2)c1C#Cc1ccc(N)nc1` [Example E-134] reads 44.9 nM; that for `CCc1ncnc(-c2ccc(Cl)c(C(=O)N(CC)CC)c2)c1C#Cc1ccc(N)nc1` [Example C-47], 541 nM; that for `CCc1ncnc(-c2cc(F)c(C(=O)N3CCN(C(C)COC)CC3)c(F)c2)c1C#Cc1ccc(N)nc1` (stereo not shown) [Example E-298], 187 nM.
The result for `CCc1ncnc(-c2ccc(C(=O)N(C)C)cc2)c1C#Cc1ccc(C)nc1` [Example C-18] reads 137 nM; that for `CCc1ncnc(-c2ccc(C(=O)N3CCC(N4CCC(C)CC4)C3)c(Cl)c2)c1C#Cc1ccc(N)nc1` (stereo not shown) [Example E-76], 233 nM; that for `CCCCN1CCN(C(=O)c2ccc(-c3ncnc(CC)c3C#Cc3ccc(N)nc3)cc2F)CC1` [Example D-83], 219 nM.
As for `CCc1ncnc(-c2cc(Cl)c(C(=O)N3CCN(C)C(=O)C3)c(Cl)c2)c1C#Cc1ccc(N)nc1` [Example E-195], the IC50 worked out at 20.3 nM.
The result for `CCc1ncnc(-c2ccc(C(=O)N(C)OC)c(Cl)c2)c1C#Cc1ccc(N)nc1` [Example E-79] reads 50 nM; that for `CCc1ncnc(-c2ccc(C(=O)N(C)C3CCOCC3)c(F)c2)c1C#Cc1ccc(N)nc1` [Example E-169], 70 nM.
The result for `CCc1ncnc(-c2ccc(C(=O)N3CCN(C4CC4)CC3)c(F)c2)c1C#Cc1ccc(N)nc1` [Example D-121] reads 127 nM.
The result for `CCc1ncnc(-c2ccc(C(=O)N3CCN(S(=O)(=O)CC)CC3)c(F)c2)c1C#Cc1ccc(N)nc1` [Example D-89] reads 52 nM.
On to `CCc1ncnc(-c2ccc(C(=O)N3CCN(C4CCCC4)CC3)c(OC)c2)c1C#Cc1ccc(N)nc1` [Example E-68], for which the IC50 is 412 nM.
The result for `CCc1ncnc(-c2ccc(C(=O)N3CCC4(CCN(C)C4)C3)c(C)c2)c1C#Cc1ccc(N)nc1` (stereo not shown) [Example E-112] reads 249 nM.
Turning to `CCc1ncnc(-c2ccc(C(=O)N3CCCO3)c(F)c2)c1C#Cc1ccc(N)nc1` [Example D-218], the IC50 amounted to 80 nM.
The result for `CCc1ncnc(-c2ccc(C(=O)N3CCN(C(C)C)CC3)c(OC(F)(F)F)c2)c1C#Cc1ccc(N)nc1` [Example E-222] reads 530 nM; that for `CCc1ncnc(-c2ccc(C(=O)N3CCN(C)CC3)nc2)c1C#Cc1ccc(N)nc1` [Example D-240], 214 nM; that for `CCc1ncnc(-c2ccc(C(=O)N3CCC4(CC3)CNCCO4)c(F)c2)c1C#Cc1ccc(N)nc1` [Example E-322], 391 nM.
The result for `CCc1ncnc(-c2cc(F)c(C(=O)N3CCN4CCC[C@H]4C3)c(F)c2)c1C#Cc1ccc(NC)nc1` [Example E-207] reads 581 nM; that for `CCc1ncnc(-c2ccc(C(=O)N3CC4(CNC4)C3)c(Cl)c2)c1C#Cc1ccc(N)nc1` [Example E-270], 328 nM.
The result for `CCc1ncnc(-c2ccc(C(=O)N3CCN(c4ccncc4)CC3)c(Cl)c2)c1C#Cc1ccc(N)nc1` [Example E-37] reads 209 nM; that for `CCc1ncnc(-c2cc(Cl)c(C(=O)N3CCN(CC)CC3)c(Cl)c2)c1C#Cc1ccc(N)nc1` [Example E-198], 90.9 nM; that for `CCc1ncnc(-c2ccc(C(=O)N3CCN4CCC[C@@H]4C3)c(Cl)c2)c1C#Cc1ccc(N)nc1` [Example E-139], 160 nM.
`CCc1ncnc(-c2ccc(C(=O)N3CCCO3)c(OC)c2)c1C#Cc1ccc(N)nc1` [Example E-50]: the IC50 turned out to be 157 nM.
The result for `CCc1ncnc(-c2ccc(C(=O)N3CCCOCC3)c(Cl)c2)c1C#Cc1ccc(N)nc1` [Example E-39] reads 65.3 nM.
The result for `CCc1ncnc(-c2ccc(C(=O)N3CCC(C(C)(C)O)CC3)c(OC)c2)c1C#Cc1ccc(N)nc1` [Example E-44] reads 232 nM; that for `CCc1ncnc(-c2ccc(C(=O)N3CCC(C4CCN(C)CC4)CC3)c(C)c2)c1C#Cc1ccc(N)nc1` [Example E-119], 281 nM; that for `CCc1ncnc(-c2ccc(C(=O)N3CCN(C)C[C@@H]3C)c(F)c2)c1C#Cc1ccc(N)nc1` [Example E-348], 144 nM.
The result for `CCc1ncnc(-c2ccc(C(=O)N3CCC(N4CCC(C)CC4)C3)c(OC)c2)c1C#Cc1ccc(N)nc1` (stereo not shown) [Example E-52] reads 578 nM.
Turning to `CCc1ncnc(-c2ccc(C(=O)N3C[C@H]4CNC[C@H]4C3)c(F)c2)c1C#Cc1ccc(N)nc1` [Example E-330], the IC50 was 601 nM.
The result for `CCc1ncnc(-c2ccc(C(=O)N3CCC(O)CC3)c(Cl)c2)c1C#Cc1ccc(N)nc1` [Example E-38] reads 52.9 nM.
As to `CCc1ncnc(-c2ccc(C(=O)NC3CCCN(C)C3)c(Cl)c2)c1C#Cc1ccc(N)nc1` [Example D-140], the 50% inhibitory concentration (IC50) turned out to be 510 nM.
The result for `CCc1ncnc(-c2ccc(C(=O)N3CCN(S(=O)(=O)CC)CC3)c(OC)c2)c1C#Cc1ccc(N)nc1` [Example D-55] reads 36 nM; that for `CCc1ncnc(-c2ccc(C(=O)N3C[C@@H]4CCN[C@@H]4C3)c(F)c2)c1C#Cc1ccc(N)nc1` [Example E-332], 655 nM.
In the case of `CCc1ncnc(-c2ccc(C(=O)N3CC[C@@H](O)C3)c(Cl)c2)c1C#Cc1ccc(N)nc1` [Example D-146], the IC50 turned out to be 66 nM.
The result for `CCc1ncnc(-c2cc(F)c(C(=O)NCC3CCNCC3)c(F)c2)c1C#Cc1ccc(N)nc1` [Example E-175] reads 163 nM; that for `CCc1ncnc(-c2ccc(C(=O)N3CCC4(CC3)CN(C)C4)c(Cl)c2)c1C#Cc1ccc(N)nc1` [Example E-338], 634 nM.
The result for `CCc1ncnc(-c2ccc(C(=O)N3CCCO3)c(C)c2)c1C#Cc1ccc(N)nc1` [Example E-94] reads 146 nM; that for `CCc1ncnc(-c2cc(F)c(C(=O)N3CCN(C4CCC4)CC3)c(Cl)c2)c1C#Cc1ccc(N)nc1` [Example E-160], 115 nM.
The result for `CCc1ncnc(-c2ccc(C(=O)N3CCC(F)(F)CC3)c(F)c2)c1C#Cc1ccc(N)nc1` [Example E-166] reads 154 nM; that for `CCc1ncnc(-c2ccc(C(=O)N(C)OC)c(C)c2)c1C#Cc1ccc(N)nc1` [Example E-104], 71.9 nM; that for `CCc1ncnc(-c2ccc(C(=O)N3CCN(C4CCOCC4)CC3)c(F)c2)c1C#Cc1ccc(N)nc1` [Example D-84], 127 nM.
With `Cc1ncnc(-c2ccc(C(F)(F)F)nc2)c1C#Cc1ccc(N)nc1` [Example C-21], the IC50 amounted to 99 nM.
The result for `CCc1ncnc(-c2ccc(C(=O)N3CCN(c4ccccc4)CC3)c(C)c2)c1C#Cc1ccc(N)nc1` [Example E-135] reads 149 nM.
The result for `CCc1ncnc(-c2ccc(C(=O)N3CCC4(CC3)CC(NC(=O)OC(C)(C)C)C4)c(F)c2)c1C#Cc1ccc(N)nc1` [Example E-319] reads 360 nM.
The result for `CCc1ncnc(-c2cc(F)c(C(=O)N3CCN(CCCS(C)(=O)=O)CC3)c(F)c2)c1C#Cc1ccc(N)nc1` [Example E-146] reads 45.8 nM; that for `Cc1ncnc(-c2ccc(C(=O)N3CCN(c4ccccc4)CC3)cc2)c1C#Cc1ccc(N)nc1` [Example D-188], 67 nM; that for `CCc1ncnc(-c2ccc(C(=O)N3CCN4CCCC[C@@H]4C3)c(F)c2)c1C#Cc1ccc(N)nc1` [Example E-145], 358 nM.
In the case of `CCc1ncnc(-c2ccc(C(=O)N3CCC(N4CCCCCC4)CC3)c(OC)c2)c1C#Cc1ccc(N)nc1` [Example E-58], the IC50 was 253 nM.
The result for `CCc1ncnc(-c2ccc(C(=O)N3CCN(C(C)CC)CC3)c(F)c2)c1C#Cc1ccc(N)nc1` [Example D-129] reads 392 nM.
